Experimental data from BindingDB's records for patent US10766864 (Nektar Therapeutics, 2020).

Molecular target: Mu-type opioid receptor (Homo sapiens, UniProt P35372)
Experiment: Receptor Binding Assay
Method: Affinities of various compounds were measured in vitro using competitive radioligand binding assays. Serial dilutions of test compounds were incubated with membranes prepared from CHO-K1 cells expressing the mu opioid receptor (MOR; for opioid receptor binding) or rat forebrain membranes (for NMDA receptor binding). 2 nM [3H] Naloxone (MOR) or 0.2 nM [3H] MK801 (NMDA) were used as the specific, competitive radioligands. 10 uM Naloxone (MOR), or 10 uM MK801 (NMDA) was used to determine non-specific binding. Bound radioactivity was measured using a scintillation counter & IC50 values for test compounds were determined by non-linear regression analysis using a one-site competition model (Graph Pad Prizm). Due to each test compound being solubilized in a buffered system for the assay, the results presented herein reflect the free base activity.

Mu-type opioid receptor, sequence (P35372 whole entry): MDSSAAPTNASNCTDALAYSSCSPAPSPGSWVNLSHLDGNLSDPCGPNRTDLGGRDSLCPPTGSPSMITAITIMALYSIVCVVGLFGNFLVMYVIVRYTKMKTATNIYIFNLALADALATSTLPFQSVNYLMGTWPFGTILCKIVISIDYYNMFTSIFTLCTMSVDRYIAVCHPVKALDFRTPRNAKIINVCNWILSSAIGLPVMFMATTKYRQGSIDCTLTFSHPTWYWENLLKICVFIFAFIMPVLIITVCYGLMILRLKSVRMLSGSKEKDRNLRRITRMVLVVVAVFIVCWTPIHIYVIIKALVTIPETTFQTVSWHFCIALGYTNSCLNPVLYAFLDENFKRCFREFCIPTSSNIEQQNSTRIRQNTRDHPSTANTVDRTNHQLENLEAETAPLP

## COCCOCCN1CC[C@]23CCCC[C@H]2[C@H]1Cc1cc2sc(N)nc2cc13 [US10766864, Example 97]
  IC50: > 1000 nM
